Calls of active or inactive are those of the source. No cut-off for these calls is given here.
Experiments:
[1] = target: T1, Stearoyl-CoA desaturase (Homo sapiens) (UniProt O00767); test: Inhibition of SCD1 in human HepG2 cells assessed as decrease in cellular elongase index at 10 uM after 72 hrs by gas chromatographic analysis; type: cell-based
T1 sequence (whole entry): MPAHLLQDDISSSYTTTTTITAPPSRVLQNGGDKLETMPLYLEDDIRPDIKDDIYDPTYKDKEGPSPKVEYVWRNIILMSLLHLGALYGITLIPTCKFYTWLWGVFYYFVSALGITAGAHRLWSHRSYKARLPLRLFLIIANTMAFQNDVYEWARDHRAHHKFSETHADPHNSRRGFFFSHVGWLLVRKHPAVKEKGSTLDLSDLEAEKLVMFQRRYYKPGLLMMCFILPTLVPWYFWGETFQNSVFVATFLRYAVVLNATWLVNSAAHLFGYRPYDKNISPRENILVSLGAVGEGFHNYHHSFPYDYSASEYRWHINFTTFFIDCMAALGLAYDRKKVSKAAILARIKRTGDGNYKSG

[2] = target: T1, Stearoyl-CoA desaturase (Homo sapiens); test: Inhibition of SCD1 in human HepG2 cells assessed as increase in cellular elongase index after 72 hrs by gas chromatographic analysis; type: cell-based
[3] = target: T1, Stearoyl-CoA desaturase (Homo sapiens); test: Inhibition of SCD1 in human HepG2 cells assessed as decrease in 16:1/16:0 desaturase index after 72 hrs by gas chromatographic analysis; type: cell-based
[4] = target: T1, Stearoyl-CoA desaturase (Homo sapiens); test: Inhibition of SCD1 in human HepG2 cells assessed as decrease in 18:1/18:0 desaturase index after 72 hrs by gas chromatographic analysis; type: cell-based
[5] = target: T1, Stearoyl-CoA desaturase (Homo sapiens); test: Inhibition of SCD1 in human HepG2 cells assessed as increase in cellular elongase index at 10 uM after 72 hrs by gas chromatographic analysis; type: cell-based
[6] = target: T1, Stearoyl-CoA desaturase (Homo sapiens); test: Inhibition of SCD1 in human HepG2 cells assessed as decrease in 16:1/16:0 desaturase index at 10 uM after 72 hrs by gas chromatographic analysis; type: cell-based
[7] = target: T1, Stearoyl-CoA desaturase (Homo sapiens); test: Inhibition of SCD1 in human HepG2 cells assessed as decrease in 18:1/18:0 desaturase index AT 10 uM after 72 hrs by gas chromatographic analysis; type: cell-based
[8] = target: T1, Stearoyl-CoA desaturase (Homo sapiens); test: Inhibition of SCD1 in human HepG2 cells assessed as decrease in cellular lipid accumulation at 1 uM after 48 hrs by Oil Red O staining-based assay; type: cell-based
[9] = target: T1, Stearoyl-CoA desaturase (Homo sapiens); test: Inhibition of SCD1 in human HepG2 cells assessed as decrease in cellular lipid accumulation at 10 uM after 48 hrs by Oil Red O staining-based assay; type: cell-based
[10] = target: T1, Stearoyl-CoA desaturase (Homo sapiens); test: Inhibition of SCD1 in human HepG2 cells assessed as increase in cellular elongase index at 1 uM after 72 hrs by gas chromatographic analysis; type: cell-based
[11] = target: T1, Stearoyl-CoA desaturase (Homo sapiens); test: Inhibition of SCD1 in human HepG2 cells assessed as decrease in 16:1/16:0 desaturase index at 1 uM after 72 hrs by gas chromatographic analysis; type: cell-based
[12] = target: T1, Stearoyl-CoA desaturase (Homo sapiens); test: Inhibition of SCD1 in human HepG2 cells assessed as decrease in 18:1/18:0 desaturase index at 1 uM after 72 hrs by gas chromatographic analysis; type: cell-based
[13] = target: Tyrosine-protein kinase JAK2 (Homo sapiens) (UniProt O60674); test: Inhibition of recombinant human N-terminal His-tagged JAK2 catalytic domain (826 to 1132 residues) expressed in baculovirus expression system at 10 uM by TR-FRET assay relative to control
Sequence of Tyrosine-protein kinase JAK2 (Homo sapiens) (O60674 whole entry, the tested form may be a part): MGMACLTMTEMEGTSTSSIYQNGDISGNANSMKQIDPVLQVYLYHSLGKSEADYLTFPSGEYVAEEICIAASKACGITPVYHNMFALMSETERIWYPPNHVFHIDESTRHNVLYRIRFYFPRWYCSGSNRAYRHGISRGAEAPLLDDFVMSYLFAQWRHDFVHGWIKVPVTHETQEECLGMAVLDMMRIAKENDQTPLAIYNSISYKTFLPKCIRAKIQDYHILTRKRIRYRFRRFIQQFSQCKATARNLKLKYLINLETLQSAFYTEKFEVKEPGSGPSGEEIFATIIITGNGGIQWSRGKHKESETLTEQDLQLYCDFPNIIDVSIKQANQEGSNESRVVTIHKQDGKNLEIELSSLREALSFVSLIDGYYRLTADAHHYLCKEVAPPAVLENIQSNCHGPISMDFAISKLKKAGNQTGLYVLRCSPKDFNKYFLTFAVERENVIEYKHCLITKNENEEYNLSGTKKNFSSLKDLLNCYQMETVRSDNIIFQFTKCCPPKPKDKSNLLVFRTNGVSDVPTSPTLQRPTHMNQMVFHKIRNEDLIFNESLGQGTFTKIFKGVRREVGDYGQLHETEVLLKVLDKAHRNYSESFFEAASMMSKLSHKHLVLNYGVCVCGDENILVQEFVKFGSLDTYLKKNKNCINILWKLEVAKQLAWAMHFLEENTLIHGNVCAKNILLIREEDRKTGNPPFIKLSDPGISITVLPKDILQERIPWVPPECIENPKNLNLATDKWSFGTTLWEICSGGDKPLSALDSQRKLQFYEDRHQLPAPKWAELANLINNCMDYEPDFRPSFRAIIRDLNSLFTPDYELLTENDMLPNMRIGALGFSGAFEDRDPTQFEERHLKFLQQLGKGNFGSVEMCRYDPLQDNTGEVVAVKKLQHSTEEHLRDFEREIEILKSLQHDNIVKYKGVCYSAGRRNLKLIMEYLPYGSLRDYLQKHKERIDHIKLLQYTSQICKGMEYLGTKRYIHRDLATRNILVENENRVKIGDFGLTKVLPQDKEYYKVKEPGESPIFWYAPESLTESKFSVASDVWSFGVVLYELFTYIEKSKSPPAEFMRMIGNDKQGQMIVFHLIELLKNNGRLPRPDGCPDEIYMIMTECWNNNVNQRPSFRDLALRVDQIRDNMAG

[14] = target: Receptor-type tyrosine-protein kinase FLT3 (Homo sapiens) (UniProt P36888); test: Inhibition of recombinant human N-terminal GST-tagged FLT3 cytoplasmic domain (564 to 993 residues) expressed in baculovirus expression system at 10 uM by TR-FRET assay relative to control
Sequence of Receptor-type tyrosine-protein kinase FLT3 (Homo sapiens) (P36888 whole entry, the tested form may be a part): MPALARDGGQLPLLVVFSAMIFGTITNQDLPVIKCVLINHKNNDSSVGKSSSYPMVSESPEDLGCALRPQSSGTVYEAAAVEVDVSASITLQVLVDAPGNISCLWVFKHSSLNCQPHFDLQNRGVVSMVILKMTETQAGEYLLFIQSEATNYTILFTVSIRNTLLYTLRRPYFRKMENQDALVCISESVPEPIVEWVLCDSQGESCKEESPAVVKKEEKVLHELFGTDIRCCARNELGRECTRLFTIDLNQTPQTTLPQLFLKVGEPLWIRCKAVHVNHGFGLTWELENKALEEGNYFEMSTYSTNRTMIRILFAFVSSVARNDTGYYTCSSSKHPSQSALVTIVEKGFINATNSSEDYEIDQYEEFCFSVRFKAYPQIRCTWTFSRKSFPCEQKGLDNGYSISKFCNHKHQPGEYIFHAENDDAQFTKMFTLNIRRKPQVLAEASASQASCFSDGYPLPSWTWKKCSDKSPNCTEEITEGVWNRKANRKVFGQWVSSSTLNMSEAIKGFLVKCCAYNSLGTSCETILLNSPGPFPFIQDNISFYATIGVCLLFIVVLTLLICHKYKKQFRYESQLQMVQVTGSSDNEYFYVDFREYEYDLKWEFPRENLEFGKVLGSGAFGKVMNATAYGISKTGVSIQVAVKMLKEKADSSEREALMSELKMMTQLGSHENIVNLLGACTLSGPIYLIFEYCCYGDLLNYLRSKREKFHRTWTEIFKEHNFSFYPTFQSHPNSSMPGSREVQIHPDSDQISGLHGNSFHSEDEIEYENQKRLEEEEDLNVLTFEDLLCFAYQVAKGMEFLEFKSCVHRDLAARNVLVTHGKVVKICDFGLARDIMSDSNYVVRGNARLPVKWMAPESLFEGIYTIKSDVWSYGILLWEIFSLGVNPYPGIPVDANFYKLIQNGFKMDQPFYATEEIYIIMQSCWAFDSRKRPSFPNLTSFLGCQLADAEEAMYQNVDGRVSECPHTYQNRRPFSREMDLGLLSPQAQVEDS

[15] = target: Macrophage colony-stimulating factor 1 receptor (Homo sapiens) (UniProt P07333); test: Inhibition of recombinant human N-terminal GST-tagged FMS cytoplasmic domain (538 to 972 residues) expressed in baculovirus expression system at 10 uM by TR-FRET assay relative to control
Sequence of Macrophage colony-stimulating factor 1 receptor (Homo sapiens) (P07333 whole entry, the tested form may be a part): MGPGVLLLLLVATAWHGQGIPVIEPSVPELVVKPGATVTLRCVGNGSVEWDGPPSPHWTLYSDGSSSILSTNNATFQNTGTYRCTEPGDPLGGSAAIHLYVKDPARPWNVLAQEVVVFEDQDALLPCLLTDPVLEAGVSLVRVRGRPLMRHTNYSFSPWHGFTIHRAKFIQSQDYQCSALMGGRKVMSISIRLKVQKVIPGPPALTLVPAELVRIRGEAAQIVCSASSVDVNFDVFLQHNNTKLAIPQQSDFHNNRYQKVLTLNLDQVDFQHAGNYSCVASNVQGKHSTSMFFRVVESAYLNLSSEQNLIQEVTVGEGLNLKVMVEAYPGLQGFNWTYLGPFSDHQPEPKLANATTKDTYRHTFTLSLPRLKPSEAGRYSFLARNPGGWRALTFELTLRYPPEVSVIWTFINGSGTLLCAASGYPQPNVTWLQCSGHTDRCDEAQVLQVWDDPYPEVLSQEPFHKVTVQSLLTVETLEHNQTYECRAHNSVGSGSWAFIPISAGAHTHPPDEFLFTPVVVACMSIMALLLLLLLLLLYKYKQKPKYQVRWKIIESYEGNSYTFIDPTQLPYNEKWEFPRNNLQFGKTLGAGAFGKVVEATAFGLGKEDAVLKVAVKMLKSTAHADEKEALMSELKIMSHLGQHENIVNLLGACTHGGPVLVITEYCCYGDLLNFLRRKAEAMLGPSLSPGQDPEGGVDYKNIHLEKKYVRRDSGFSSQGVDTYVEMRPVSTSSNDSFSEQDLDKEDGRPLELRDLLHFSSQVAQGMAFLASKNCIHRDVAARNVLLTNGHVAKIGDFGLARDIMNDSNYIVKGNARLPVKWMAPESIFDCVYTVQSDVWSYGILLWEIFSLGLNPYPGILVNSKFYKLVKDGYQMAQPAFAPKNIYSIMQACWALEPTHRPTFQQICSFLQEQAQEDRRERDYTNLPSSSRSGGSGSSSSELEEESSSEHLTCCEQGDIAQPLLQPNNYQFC

[16] = target: Tyrosine-protein kinase ABL1 (Homo sapiens) (UniProt P00519); test: Inhibition of full-length recombinant human N-terminal His-tagged ABL expressed in baculovirus expression system at 10 uM by TR-FRET assay relative to control
Sequence of Tyrosine-protein kinase ABL1 (Homo sapiens) (P00519 whole entry): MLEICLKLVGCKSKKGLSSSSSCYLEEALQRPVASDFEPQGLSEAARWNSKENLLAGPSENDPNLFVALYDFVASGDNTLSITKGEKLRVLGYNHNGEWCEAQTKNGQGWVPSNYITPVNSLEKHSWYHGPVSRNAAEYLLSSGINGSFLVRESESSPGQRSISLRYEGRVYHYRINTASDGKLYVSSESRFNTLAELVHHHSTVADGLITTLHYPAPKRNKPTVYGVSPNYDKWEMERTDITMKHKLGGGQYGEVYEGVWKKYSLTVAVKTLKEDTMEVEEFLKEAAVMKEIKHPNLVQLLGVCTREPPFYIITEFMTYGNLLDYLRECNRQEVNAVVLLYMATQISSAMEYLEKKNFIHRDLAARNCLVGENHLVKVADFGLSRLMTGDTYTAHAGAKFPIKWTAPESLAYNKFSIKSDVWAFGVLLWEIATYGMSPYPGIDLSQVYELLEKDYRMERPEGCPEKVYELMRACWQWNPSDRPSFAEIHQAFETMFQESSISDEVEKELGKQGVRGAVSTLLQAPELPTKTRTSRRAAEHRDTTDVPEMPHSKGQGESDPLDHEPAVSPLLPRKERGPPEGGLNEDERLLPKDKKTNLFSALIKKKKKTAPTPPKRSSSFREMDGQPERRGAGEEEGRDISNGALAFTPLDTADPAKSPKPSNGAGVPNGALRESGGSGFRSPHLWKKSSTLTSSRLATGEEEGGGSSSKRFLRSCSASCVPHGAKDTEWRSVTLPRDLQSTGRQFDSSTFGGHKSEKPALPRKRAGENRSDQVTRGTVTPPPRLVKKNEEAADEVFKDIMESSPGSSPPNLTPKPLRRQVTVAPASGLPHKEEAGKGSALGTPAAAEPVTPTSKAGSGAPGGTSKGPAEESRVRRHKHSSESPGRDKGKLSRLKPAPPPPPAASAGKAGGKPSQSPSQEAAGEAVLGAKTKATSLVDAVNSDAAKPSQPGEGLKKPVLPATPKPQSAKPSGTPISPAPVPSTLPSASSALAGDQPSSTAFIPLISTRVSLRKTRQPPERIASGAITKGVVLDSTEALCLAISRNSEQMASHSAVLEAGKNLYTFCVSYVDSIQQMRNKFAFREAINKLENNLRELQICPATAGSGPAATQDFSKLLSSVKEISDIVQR

Structure (SMILES)	inhibition [1]	inhibition [3]	inhibition [4]	inhibition [5]	inhibition [6]	inhibition [7]	also measured
NC(=O)c1c(NC(=O)c2ccc(CN3CCOCC3)cc2)sc2c1CCCC2	Active	–	–	–	–	–	–
O=c1[nH]c(-c2ccc(CN3CCS(=O)(=O)CC3)cc2)nc2sc3c(c12)CCC(CO)C3 (stereo not given)	Active	–	–	–	–	–	–
Cc1nnc(-c2ccc(N3CCC(Oc4cc(F)ccc4Cl)CC3)nn2)o1	–	Dose-dependent effect	Dose-dependent effect	Active	Active	Active	inhibition [2]: Dose-dependent effect; inhibition [8]: Active
O=c1[nH]c(-c2ccc(CN3CCCCC3)cc2)nc2sc3c(c12)CCC(CO)C3 (stereo not given)	Active	–	–	–	–	–	–
NC(=O)c1c(NC(=O)c2ccc(CN3CCOCC3)cc2)sc2c1CCC(c1ccc(O)cc1)C2 (stereo not given)	–	–	–	inactive	–	–	–
NC(=O)c1c(NC(=O)c2ccc(CN3CCOCC3)cc2)sc2c1CCCC2CCO (stereo not given)	Active	–	–	–	–	–	–

Continued, in another order:

inhibition [1]	inhibition [3]	inhibition [4]	inhibition [5]	inhibition [6]	inhibition [7]	Structure (SMILES)	also measured
–	Dose-dependent effect	Dose-dependent effect	Active	Active	Active	NC(=O)c1c(NC(=O)c2ccc(CN3CCS(=O)(=O)CC3)cc2)sc2c1CCC(CO)C2 (stereo not given)	–
–	–	–	inactive	–	–	NC(=O)c1c(NC(=O)c2ccc(CN3CCOCC3)cc2)sc2c1CCC(C(=O)O)C2 (stereo not given)	–
Active	–	–	–	–	–	NC(=O)c1c(N)sc2c1CCC(CO)C2 (stereo not given)	–
–	Dose-dependent effect	Dose-dependent effect	Active	Active	Active	O=c1[nH]c(-c2ccc(CN3CCOCC3)cc2)nc2sc3c(c12)CCC(CO)C3 (stereo not given)	–
–	Dose-dependent effect	Dose-dependent effect	Active	Active	Active	CN(C)Cc1ccc(C(=O)Nc2sc3c(c2C(N)=O)CCC(CO)C3)cc1 (stereo not given)	–
–	Dose-dependent effect	Dose-dependent effect	Active	Active	Active	NC(=O)c1c(NC(=O)c2ccc(CN3CCCCC3)cc2)sc2c1CCC(CO)C2 (stereo not given)	–
Active	–	–	–	–	–	CN(C)Cc1ccc(-c2nc3sc4c(c3c(=O)[nH]2)CCC(CO)C4)cc1 (stereo not given)	inhibition [9]: inactive
Active	–	–	–	–	–	CCOC(=O)C1CCc2c(sc(NC(=O)c3ccc(CN4CCOCC4)cc3)c2C(N)=O)C1 (stereo not given)	–
–	Dose-dependent effect	Dose-dependent effect	Active	Active	Active	NC(=O)c1c(NC(=O)c2ccc(CN3CCOCC3)cc2)sc2c1CCC(CO)C2 (stereo not given)	inhibition [10]: Active; inhibition [11]: Active; inhibition [12]: Active; inhibition [9]: Active; inhibition [13]: 45%; inhibition [14]: > 80%; inhibition [15]: > 80%; inhibition [16]: > 80%

From ChEMBL document CHEMBL4043175, “Tetrahydrobenzothiophene carboxamides: Beyond the kinase domain and into the fatty acid realm” (Bioorg Med Chem Lett, 2017)
